Test results from patent publication US7432353B2, “Fluorescent indicator proteins” (priority 2005, dated 2008).

Key:
[1] = target: T1, E. coli RBP (ribose binding protein) fusion protein CrbsBY-ND (Asn-Asp between ECFP and RBP), SEQ ID NO: 38 (Escherichia coli, UniProt P02925); assay: Ribose titration and sugar specificity of FRET sensor CrbsBY-ND; conditions: for affinity (substrate specificity): in words, FIG. 12C
T1 construct: made in house; host or cells: E. coli JM109 (DE3)
Method: (§1) The fluorescence analysis of the MBP fusion proteins expressed and purified in Example 2 was performed using fluorescence spectrophotometer Cary Eclipse (Varian, Australia) at 25° C., and the MBP fusion proteins were diluted in PBS buffer (pH 7.4) to the same concentrations of 0.2 μM. To define the FRET efficiency in the fluorescence analysis, the emission intensity ratio between the emission intensity of ECFP at 480 nm, measured at an excitation wavelength of 436 nm, and the emission intensity of EYFP at 530 nm, caused by FRET, was substituted into Equation 3 below for convenience: Ratio=[530 nm/480 nm] [Equation 3]
(§2) Profiles of the ratios at wide substrate concentrations were fit by a four-parameter Hill equation with SigmaPlot (SSI, USA) and the binding substance concentration corresponding to the medium between ratio10 mM and ratioapo was determined to be the dissociation constant (Kd) of the fusion proteins.
(§3) The selection of PBPs to be introduced into the MBP position was performed by collecting data from SCOP (Structural Classification of Proteins; http://scop.mrc-lmb.cam.ac.uk/scop/), and then investigating the kinetic change of three-dimensional structures which is accompanied by substrate binding in PDB (Protein Data Bank, http://www.rcsb.org/pdb/). For example, three kinds of E. coli-derived PBPs such as ALBP, RBP, and ARBP were introduced into the MBP site of the MBP fusion proteins according to the present invention. For this purpose, the genetic sequence information of said PBPs was secured from Swiss-Prot (http://kr.expasy.org/), and on the basis of the information, primers capable of amplifying genes encoding the PBPs were constructed. The genes were amplified by performing PCR from the chromosome of E. coli MG1655 using the constructed primers.
(§4) The fusion protein expression vectors constructed in the form of libraries as described above were transformed into E. coli JM109 (DE3), and 3-5 bacterial strains transformed with vectors were randomly selected from each of the libraries without carrying out the screening process described in Example 4, and were expressed and purified according to the method of Example 2. Then, the various PBP fusion proteins were subjected to analyze the fluorescence characteristics to each of substances, and sugar sensors (the fluorescent indicator proteins for detection of sugar) having the highest signal intensity were selected. As a result, as shown on FIGS. 11A, 11B and 11C, and Table 2 below, CalsBY-QV of SEQ ID NO: 36, CaraFY-PR of SEQ ID NO: 37 and CrbsBY-ND of SEQ ID NO: 38 could be secured.
(§5) To examine the substrate affinity of said three kinds of fusion proteins, the substrate specificity thereof for a variety of sugars was analyzed.

[2] = target: T2, E. coli ALBP (allose binding protein) fusion protein CalsBY-QV (Gln-Val between ECFP and ALBP), SEQ ID NO: 36 (Escherichia coli, UniProt P39265); assay: Allose titration and sugar specificity of FRET sensor CalsBY-QV
T2 construct: made in house; host or cells: E. coli JM109 (DE3)

[3] = target: T3, E. coli ARBP (arabinose binding protein) fusion protein CaraFY-PR (Pro-Arg between ECFP and ARBP), SEQ ID NO: 37 (Escherichia coli, UniProt P02924); assay: Arabinose titration and sugar specificity of FRET sensor CaraFY-PR; conditions: for affinity (substrate specificity): in words, FIG. 12B
T3 construct: made in house; host or cells: E. coli JM109 (DE3)
Method: as §1, §2, §3, §4, §5

[4] = target: T4, SBP (sucrose binding protein; MBP mutant Asp14Leu, Lys15Phe, Trp62Tyr, Glu111Tyr) fusion protein CSY-B (Escherichia coli, UniProt P0AEX9, D40L/E137Y/K41F/W88Y); assay: Sucrose and maltose titration of FRET sensor CSY-B; conditions: for Quantification range: range between 10 and 90% saturation
T4 construct: SBP = engineered MBP made on pMALc2x template; expressed in E. coli JM109(DE3), purified
Method: as §1, §2
(§6) The MBP-encoding gene to be used as a template was a pMALc2x vector (NEB, USA), and to make the SBP gene, PCR was performed using primers of SEQ ID NOs: 27, 28, 29 and 11. Because the above-amplified gene contains partial mutations in MBP, including a substitution of Asp14 with Leu, a substitution of Lys15 with Phe, a substitution of Trp62 with Tyr, and a substitution of Glu111 with Tyr, it encodes the SBP gene capable of binding to sucrose, as reported in the prior art (Guntas, G. et al., PNAS, 102:11224, 2005).
(§7) The above SBP fusion protein expression vectors were transformed into E. Coli JM109 (DE3), expressed and purified according to the method of Example 3.

[5] = target: T5, SBP (sucrose binding protein; MBP mutant Asp14Leu, Lys15Phe, Trp62Tyr, Glu111Tyr) fusion protein CSY-LH, SEQ ID NO: 39 (Escherichia coli, UniProt P0AEX9, D40L/E137Y/K41F/W88Y); assay: Sucrose and maltose titration and sugar specificity of FRET sensor CSY-LH; conditions: for Quantification range: range between 10 and 90% saturation
T5 construct: made in house; host or cells: E. coli JM109 (DE3)
Method: as §1, §2, §6, §7
The CSY-LH was analyzed for binding affinity for a variety of sugars.

[6] = target: T6, SBP (sucrose binding protein; MBP mutant Asp14Leu, Lys15Phe, Trp62Tyr, Glu111Tyr) fusion protein CSY-BII (Escherichia coli, UniProt P0AEX9, D40L/E137Y/K41F/W88Y); assay: Sucrose and maltose titration of FRET sensor CSY-BII; conditions: for Quantification range: range between 10 and 90% saturation
T6 construct: SBP = engineered MBP made on pMALc2x template; expressed in E. coli JM109(DE3), purified
Method: as §1, §2, §6, §7

[7] = target: T7, MBP (maltose binding protein) fusion protein CMY-LH (Leu-His between ECFP and MBP), SEQ ID NO: 32 (Escherichia coli, UniProt P0AEX9); assay: Maltose titration and sugar specificity of FRET sensor CMY-LH; conditions: for affinity (substrate specificity): in words, FIG. 8A, 10 mM for d-glucose and melezitose, change attributed to contamination of trace maltose
T7 construct: made in house; host or cells: E. coli JM109 (DE3)
Method: as §1, §2

[8] = target: T8, MBP (maltose binding protein) fusion protein CMY-B (ECFP-MBP-EYFP) (Escherichia coli, UniProt P0AEX9); assay: Maltose response of FRET sensor CMY-B; conditions: in words; control for yeast imaging, 10 mM maltose
T8 construct: mature MBP from pMALc2x; expressed in E. coli JM109(DE3), purified
Method: as §1, §2

[9] = target: T9, MBP (maltose binding protein) fusion protein CMY-LH variant CMY-LH/W62L (Trp62Leu in MBP), SEQ ID NO: 35 (Escherichia coli, UniProt P0AEX9, W88L); assay: Maltose titration and sugar specificity of FRET sensor CMY-LH/W62L; conditions: range between 10 and 90% saturation
T9 construct: made in house; host or cells: E. coli JM109 (DE3)
Method: as §1, §2

[10] = target: T10, MBP (maltose binding protein) fusion protein CMY-LH variant CMY-LH/W62H (Trp62His in MBP), SEQ ID NO: 34 (Escherichia coli, UniProt P0AEX9, W88H); assay: Maltose titration and sugar specificity of FRET sensor CMY-LH/W62H; conditions: range between 10 and 90% saturation
T10 construct: made in house; host or cells: E. coli JM109 (DE3)
Method: as §1, §2

[11] = target: T11, MBP (maltose binding protein) fusion protein CMY-0 (ECFP-MBP-EYFP without connecting peptides) (Escherichia coli, UniProt P0AEX9); assay: Maltose titration of FRET sensor CMY-0 (fluorescence ratio 530/480 nm); conditions: range between 10 and 90% saturation
T11 construct: mature MBP amplified from pMALc2x (NEB); expressed in E. coli JM109(DE3), purified
Method: as §1, §2

[12] = target: T12, MBP (maltose binding protein) fusion protein CMY-LH variant CMY-LH/W62A (Trp62Ala in MBP), SEQ ID NO: 33 (Escherichia coli, UniProt P0AEX9, W88A); assay: Maltose titration of FRET sensor CMY-LH/W62A; conditions: range between 10 and 90% saturation
T12 construct: made in house; host or cells: E. coli JM109 (DE3)
Method: as §1, §2

[13] = target: T13, MBP (maltose binding protein) fusion protein CMY-BII (ECFP-SR-MBP-GS-EYFP) (Escherichia coli, UniProt P0AEX9); assay: Maltose titration of FRET sensor CMY-BII; conditions: range between 10 and 90% saturation
T13 construct: mature MBP from pMALc2x; expressed in E. coli JM109(DE3), purified
Method: as §1, §2

[14] = target: T14, MBP (maltose binding protein) fusion protein CMY-QI (Gln-Ile between ECFP and MBP), SEQ ID NO: 31 (Escherichia coli, UniProt P0AEX9); assay: Maltose titration of FRET sensor CMY-QI; conditions: range between 10 and 90% saturation
T14 construct: made in house; host or cells: E. coli JM109 (DE3)
Method: as §1, §2

[15] = ratio(10 mM) minus ratioapo, saturating sugar

OC[C@H]1OC(O)[C@H](O)[C@H](O)[C@@H]1O (some centres unmarked) [allose]
affinity (substrate specificity) [1]: very high affinity | Quantification range ([2]; allose, range between 10 and 90% saturation): 0.04 to 2.81 µM

OC[C@H]1O[C@@H](O[C@H]2[C@H](O)[C@@H](O)C(O)O[C@@H]2CO)[C@H](O)[C@@H](O)[C@H]1O (some centres unmarked) [lactose]
affinity (substrate specificity) [3]: low affinity

OC[C@H]1O[C@@](CO)(O[C@H]2O[C@H](CO)[C@@H](O)[C@H](O)[C@H]2O)[C@@H](O)[C@@H]1O [sucrose]
Kd [4]: 286 ± 16 µM | Quantification range [4]: 20-3,700 μM | Δratio [4, 15]: −0.11 | Kd [5]: 163 ± 3 µM | Kd, fold higher than previously reported results ([5]; compared to Guntas et al., PNAS, 102:11224, 2005): about 25 fold | Quantification range [5]: 17-1,560 μM | Δratio [5, 15]: 0.72 | Kd [6]: 234 ± 18 µM | Quantification range [6]: 30-1,880 μM | Δratio [6, 15]: 0.14

OC[C@H]1OC(O)[C@H](O)[C@@H](O)[C@@H]1O (stereo partly drawn) [d-glucose]
affinity (substrate specificity) [7]: low level of affinity

OC1OC[C@H](O)[C@H](O)[C@H]1O (some centres unmarked) [arabinose]
Kd [3]: 360 ± 10 nM | Quantification range ([3]; arabinose, range between 10 and 90% saturation): 0.05 to 2.74 µM | Δratio ([3]; arabinose, ratio(10 mM) minus ratioapo, saturating sugar): 0.29

OC[C@H]1O[C@H](O[C@H]2[C@H](O)[C@@H](O)C(O)O[C@@H]2CO)[C@H](O)[C@@H](O)[C@@H]1O (some centres unmarked) [maltose]
Quantification range [4]: 120-9,500 μM | sensitivity to maltose [8]: no sensitivity | Quantification range [9]: 10 to 650 µM | Quantification range ([7]; maltose, range between 10 and 90% saturation): 0.2 to 13.2 µM | Quantification range [10]: 5 to 325 µM | Quantification range [5]: 80-5,080 μM | Quantification range [11]: 0.5 to 11.2 µM | Quantification range [12]: 31-2,080 μM | Quantification range [13]: 0.3 to 13.3 µM | Quantification range [14]: 0.2 to 15.1 µM | Quantification range [6]: 155-3,800 μM

OC[C@H]1OC(O)[C@H](O)[C@@H](O)[C@H]1O (some centres unmarked) [galactose]
affinity (substrate specificity) [3]: very high affinity

OC[C@H]1O[C@H](OC[C@H]2OC(O)[C@H](O)[C@@H](O)[C@@H]2O)[C@H](O)[C@@H](O)[C@H]1O (some centres unmarked) [melibiose]
affinity (substrate specificity) [3]: low affinity

OC[C@H]1O[C@@](CO)(O[C@H]2O[C@H](CO)[C@@H](O)[C@H](O)[C@H]2O)[C@@H](O[C@H]2O[C@H](CO)[C@@H](O)[C@H](O)[C@H]2O)[C@@H]1O [melezitose]
affinity (substrate specificity) [7]: low level of affinity

C[C@@H]1OC(O)[C@H](O)[C@H](O)[C@H]1O (some centres unmarked) [rhamnose]
affinity (substrate specificity) [3]: low affinity

OC1OC[C@@H](O)[C@H](O)[C@H]1O (some centres unmarked) [xylose]
affinity (substrate specificity) [1]: significant affinity | affinity (substrate specificity) [3]: low affinity

OC1OC[C@@H](O)[C@@H](O)[C@H]1O (some centres unmarked) [ribose]
Kd ([1]; ribose, 50% saturation): 170 ± 10 nM | Quantification range ([1]; ribose, range between 10 and 90% saturation): 0.03 to 1.15 µM | Δratio ([1]; ribose, ratio(10 mM) minus ratioapo, saturating sugar): −0.12 | affinity (substrate specificity) ([2]; in words, FIG. 12A, ribose at mM levels): low affinity
